Experimental findings from patent US9573966B2, “Anti-cancer activity of novel bicyclic heterocycles” (Katholieke Universiteit Leuven, K.U.Leuven R&D, priority 2010, dated 2017) are described below.

In one experiment the test system is HSB-2 cells. Put plainly: Inhibition of HSB-2 leukemic cell line proliferation (WST-1). The conditions noted are these: cytotoxicity on HSB-2 cells, two days incubation, WST-1 read-out. Type of experiment: cell-based, human. On the procedure:
(§1) HSB2 cell line, a human acute lymphoblastic leukemia (ATCC; CCL-120.1) cell line, was grown in RPMI-1640 medium (Lonza, Belgium) supplemented with 10% fetal calf serum (Hyclone, US) and antibiotics. Exponential growing phase cells were seed in flat bottom 96-well microplates (TTP, Switzerland) at 50000 cells per well in 220 μl of medium with compounds (in different concentrations) and incubated for two days at 37° C., 5% CO2. After incubation, 100 μl of supernatant were removed and 10 μl of WST-1 (Roche, Switzerland) were added. After 2 hour incubation at 37° C., 5% CO2, optical densities were measured at 450 nm. Proliferation is calculated with respect of control points (no compound and treatment with Triton X100 to have maximum and minimum proliferation data). The IC50 was determined from a graph with at least four points, each derived from the mean of at least 2 experiments. […] The results are shown in Table 1 for a number of compounds.

Another experiment deals with HL-60 cells. Put plainly: Inhibition of HL-60 leukemic cell line proliferation (WST-1). The experiment is classed as cell-based, human. The conditions noted are these: Homo sapiens, 48 h; cytotoxicity on HL-60 cells, two days incubation, WST-1 read-out. On the procedure: as §1, with “HL-60 cell” for “HSB2 cell”, “human promyelocytic” for “human acute lymphoblastic”, “(ATCC; CCL-240)” for “(ATCC; CCL-120.1)”, “Table 2” for “Table 1”
For orientation: Formazan colour is commonly taken as a measure of viable cells.

The term IC50 denotes the concentration needed to halve the response being measured. As for `COc1ccccc1NC(=O)N1CCN(c2nc(N)nc3sc(-c4ccc(F)cc4)nc23)CC1` [Example 219, 4-(5-amino-2-(4-fluorophenyl)thiazolo[5,4-d]pyrimidin-7-yl)-N-(2-methoxyphenyl)piperazine-1-carboxamide], the IC50 in the experiment on HSB-2 cells (Homo sapiens, HSB2, 48 h) was 5.83 µM; in the experiment with HL-60 cells it was 6.19 µM. In the same order, the values of `Nc1nc(N2CCN(c3ccc(Cl)cc3)CC2)c2nc(-c3ccc(F)cc3)[nH]c2n1` [Example 414, 6-(4-(4-chlorophenyl)piperazin-1-yl)-8-(4-fluorophenyl)-9H-purin-2-amine] are greater than 10 µM and greater than 10 µM.

As to `Nc1nc(N2CCN(C(=O)Nc3ccc(Br)cc3)CC2)c2nc(-c3ccc(F)cc3)sc2n1` [Example 218, 4-(5-amino-2-(4-fluorophenyl)thiazolo[5,4-d]pyrimidin-7-yl)-N-(4-bromophenyl)piperazine-1-carboxamide], the concentration for half-maximal inhibition (IC50) is 7.05 µM in the experiment on HSB-2 cells (Homo sapiens, HSB2, 48 h) and 7.35 µM in the experiment with HL-60 cells.

For `Nc1nc(N2CCN(C(=O)COc3ccc(Cl)cc3)CC2)c2nc(-c3ccccn3)sc2n1` [Example 282, 1-(4-(5-amino-2-(pyridin-2-yl)thiazolo[5,4-d]pyrimidin-7-yl)piperazin-1-yl)-2-(4-chlorophenoxy)ethanone], the concentration for half-maximal inhibition (IC50) in the experiment with HSB-2 cells (Homo sapiens, HSB2, 48 h) turned out to be 0.56 µM; in the experiment on HL-60 cells it was 0.92 µM. The corresponding values for `Cc1nc2c(N3CCN(C(=O)COc4ccc(Cl)cc4)CC3)nc(N)nc2[nH]1` [Example 400, 1-(4-(2-amino-8-methyl-9H-purin-6-yl)piperazin-1-yl)-2-(4-chlorophenoxy)ethanone] are 2.06 µM and 2.98 µM. The corresponding values for `COc1ccc(-c2nc3c(N4CCN(C(=O)COc5ccc(Cl)cc5)CC4)nc(N)nc3[nH]2)cc1OC` [Example 390, 1-(4-(2-amino-8-(3,4-dimethoxyphenyl)-9H-purin-6-yl)piperazin-1-yl)-2-(4-chlorophenoxy)ethanone] are 0.45 µM and greater than 10 µM. Turning to `Cc1cccc(OCC(=O)N2CCN(c3nc(N)nc4sc(-c5ccc(F)cc5)nc34)CC2)c1` [Example 211, 1-(4-(5-amino-2-(4-fluorophenyl)thiazolo[5,4-d]pyrimidin-7-yl)piperazin-1-yl)-2-(m-tolyloxy)ethanone], the half-inhibitory concentration (IC50) in the experiment on HSB-2 cells (Homo sapiens, HSB2, 48 h) came to 0.47 µM; with HL-60 cells it was 0.69 µM.

With `COCc1nc2c(N3CCN(C(=O)COc4ccc(Cl)cc4)CC3)nc(N)nc2o1` [Example 186, 5-amino-7-[4-(4-chlorophenoxyacetyl)piperazin-1-yl]-2-methoxylmethyloxazolo[5,4-d]pyrimidine], the IC50 in the experiment with HSB-2 cells (Homo sapiens, HSB2, 48 h) is greater than 10 µM; in the experiment on HL-60 cells it was greater than 10 µM.

As to `COc1ccc(OCC(=O)N2CCN(c3nc(N)nc4sc(-c5ccccc5)nc34)CC2)cc1` [Example 208, 1-(4-(5-amino-2-phenylthiazolo[5,4-d]pyrimidin-7-yl)piperazin-1-yl)-2-(4-methoxyphenoxy)ethanone], the IC50 is 0.06 µM in the experiment with HSB-2 cells (Homo sapiens, HSB2, 48 h) and 0.07 µM in the experiment on HL-60 cells.

As to `Nc1nc(N2CCN(C(=O)COc3ccc(Cl)cc3)CC2)c2nc(C3CC3)[nH]c2n1` [Example 398, 1-(4-(2-amino-8-cyclopropyl-9H-purin-6-yl)piperazin-1-yl)-2-(4-chlorophenoxy)ethanone], the IC50 in the experiment on HSB-2 cells (Homo sapiens, HSB2, 48 h) turned out to be 4.78 µM; in the experiment with HL-60 cells, 6.08 µM.

In the case of `Nc1nc(N2CCN(C(=O)COc3ccc(Cl)cc3)CC2)c2cc(-c3ccccc3)sc2n1` [Example 329, 1-(4-(2-amino-6-phenylthieno[2,3-d]pyrimidin-4-yl)piperazin-1-yl)-2-(4-chlorophenoxy)ethanone], the IC50 was 13.7 µM in the experiment on HSB-2 cells (Homo sapiens, HSB2, 48 h) and greater than 10 µM in the experiment with HL-60 cells. In the same order, the values of `Nc1nc(N2CCN(C(=O)COc3ccc(Cl)cc3)CC2)c2nc(CCc3ccc(F)cc3)oc2n1` [Example 172, 1-(4-(5-amino-2-(4-fluorophenethyl)oxazolo[5,4-d]pyrimidin-7-yl)piperazin-1-yl)-2-(4-chlorophenoxy)ethanone] are greater than 10 µM and greater than 10 µM. The corresponding values for `Nc1nc(N2CCN(C(=O)Nc3ccc(Cl)cc3)CC2)c2cc(-c3ccccc3)sc2n1` [Example 331, 4-(2-amino-6-phenylthieno[2,3-d]pyrimidin-4-yl)-N-(4-chlorophenyl)piperazine-1-carboxamide] are greater than 10 µM and greater than 10 µM. Turning to `Nc1nc(N2CCN(C(=O)COc3ccc(Br)cc3)CC2)c2nc(-c3ccc(F)cc3)sc2n1` [Example 128, 5-amino-2-(4-fluorophenyl)-7-(4-[2-(4-bromophenoxy)acetyl]-piperazin-1-yl)-thiazolo[5,4-d]pyrimidine], the IC50 came out at 5.62 µM in the experiment with HSB-2 cells and 6.47 µM in the experiment on HL-60 cells. Take `CCCCCc1nc2c(N3CCN(C(=O)COc4ccc(Cl)cc4)CC3)nc(N)nc2o1` [Example 188, 5-amino-7-[4-(4-chlorophenoxyacetyl)piperazin-1-yl]-2-pentyloxazolo[5,4-d]pyrimidine]: the IC50 in the experiment on HSB-2 cells (Homo sapiens, HSB2, 48 h) was greater than 10 µM; with HL-60 cells, greater than 10 µM.

As to `Nc1nc(N2CCN(C(=O)CCc3ccccc3)CC2)c2cc(-c3ccc(F)cc3)sc2n1` [Example 343, 1-(4-(2-amino-6-(4-fluorophenyl)thieno[2,3-d]pyrimidin-4-yl)piperazin-1-yl)-3-phenylpropan-1-one], the 50% inhibitory concentration (IC50) in the experiment on HSB-2 cells (Homo sapiens, HSB2, 48 h) was greater than 10 µM; with HL-60 cells, greater than 10 µM. Take `Nc1nc(N2CCN(C(=O)COc3ccc(Cl)cc3)CC2)c2nc(-c3ccc(Cl)c(Cl)c3)sc2n1` [Example 116, 5-amino-7-[4-(4-chlorophenoxyacetyl)piperazin-1-yl]-2-(3,4-dichlorophenyl)thiazolo[5,4-d]pyrimidine]: the IC50 with HSB-2 cells (Homo sapiens, HSB2, 48 h) came to 6.01 µM; in the experiment on HL-60 cells it was 8.59 µM.

As for `Nc1nc(N2CCN(C(=O)COc3ccccc3)CC2)c2nc(-c3ccc(F)cc3)sc2n1` [Example 130, 5-amino-2-(4-fluorophenyl)-7-(4-(2-phenoxyacetyl)-piperazin-1-yl)-thiazolo[5,4-d]pyrimidine], the IC50 is 0.57 µM in the experiment with HSB-2 cells (Homo sapiens, HSB2, 48 h) and 0.82 µM in the experiment on HL-60 cells.

As for `Cc1cc(Cl)ccc1OCC(=O)N1CCN(c2nc(N)nc3sc(-c4ccc(F)cc4)nc23)CC1` [Example 213, 1-(4-(5-amino-2-(4-fluorophenyl)thiazolo[5,4-d]pyrimidin-7-yl)piperazin-1-yl)-2-(4-chloro-2-methylphenoxy)ethanone], the IC50 in the experiment with HSB-2 cells (Homo sapiens, HSB2, 48 h) was 5.25 µM; in the experiment with HL-60 cells, 6.72 µM. In the same order, the values of `Nc1nc(N2CCN(C(=O)COc3ccc(Cl)cc3)CC2)c2nc(CCc3cccs3)sc2n1` [Example 154, 5-amino-2-(2-thiophen-2-ylethyl)-7-(4-[2-(4-chloro-phenoxy)acetyl]piperazin-1-yl)thiazolo[5,4-d]pyrimidine] are 4.04 µM and 6.45 µM.

Consider `Nc1nc(N2CCN(C(=O)COc3ccc(Cl)cc3)CC2)c2nc(C3CC3)oc2n1` [Example 185, 5-amino-2-cyclopropyl-7-[4-(4-chlorophenoxyacetyl)piperazin-1-yl]-oxazolo[5,4-d]pyrimidine], for which the IC50 with HSB-2 cells (Homo sapiens, HSB2, 48 h) is greater than 10 µM; in the experiment with HL-60 cells it was greater than 10 µM. For `Nc1nc(N2CCN(C(=O)Nc3ccc(Cl)cc3)CC2)c2nc(-c3cccnc3)sc2n1` [Example 277, 4-(5-amino-2-(pyridin-3-yl)thiazolo[5,4-d]pyrimidin-7-yl)-N-(4-chlorophenyl)piperazine-1-carboxamide], the 50% inhibitory concentration (IC50) in the experiment with HSB-2 cells (Homo sapiens, HSB2, 48 h) amounted to 0.74 µM; in the experiment on HL-60 cells it was 0.83 µM.

As to `Nc1nc(N2CCN(C(=O)COc3cccc([N+](=O)[O-])c3)CC2)c2nc(-c3ccc(F)cc3)sc2n1` [Example 129, 5-amino-2-(4-fluorophenyl)-7-(4-[2-(3-nitrophenoxy)acetyl]-piperazin-1-yl)-thiazolo[5,4-d]pyrimidine], the IC50 in the experiment with HSB-2 cells (Homo sapiens, HSB2, 48 h) turned out to be 4.76 µM; in the experiment on HL-60 cells, 9.74 µM.

As for `N#Cc1ccc(NC(=O)N2CCN(c3nc(N)nc4sc(Cc5ccc(F)cc5)nc34)CC2)cc1` [Example 232, 4-(5-amino-2-(4-fluorobenzyl)thiazolo[5,4-d]pyrimidin-7-yl)-N-(4-cyanophenyl)piperazine-1-carboxamide], the half-inhibitory concentration (IC50) with HSB-2 cells (Homo sapiens, HSB2, 48 h) came out at 6.89 µM; in the experiment on HL-60 cells, 9.89 µM. For the molecule `N#Cc1ccc(NC(=O)N2CCN(c3nc(N)nc4sc(-c5cccnc5)nc34)CC2)cc1` [Example 279, 4-(5-amino-2-(pyridin-3-yl)thiazolo[5,4-d]pyrimidin-7-yl)-N-(4-cyanophenyl)piperazine-1-carboxamide], the IC50 in the experiment with HSB-2 cells (Homo sapiens, HSB2, 48 h) came to 0.68 µM; with HL-60 cells, 0.88 µM.

In the case of `Nc1nc(N2CCN(C(=O)COc3ccc(Cl)cc3)CC2)c2nc(-c3ccc(F)cc3)[nH]c2n1` [Example 389, 1-(4-(2-amino-8-(4-fluorophenyl)-9H-purin-6-yl)piperazin-1-yl)-2-(4-chlorophenoxy)ethanone], the IC50 with HL-60 cells was greater than 10 µM.
